Reference: patent US12492188B2, “1H-benzo[D]imidazole derivatives as TLR9 inhibitors for the treatment of fibrosis” (BRISTOL-MYERS SQUIBB COMPANY, priority 2020, dated 2025)
pIC50: −log10 of the molar value. Like-named read-outs stand apart in the source and are kept apart here.

Experiments:
Format in all cases: cell-based
human TLR8 = target: T1, human TLR8 (Homo sapiens, UniProt Q9NR97); assay: TLR8 inhibition reporter assay (HEK-Blue cells, secreted embryonic alkaline phosphatase reporter); conditions: HEK-Blue cells overexpressing human TLR8, stimulated with R848 15.9 μM; read-out: TLR 8 IC50
T1 construct: host or cells: HEK-Blue cells (HEK293-derived reporter line)
T1 sequence (Q9NR97 27-1041): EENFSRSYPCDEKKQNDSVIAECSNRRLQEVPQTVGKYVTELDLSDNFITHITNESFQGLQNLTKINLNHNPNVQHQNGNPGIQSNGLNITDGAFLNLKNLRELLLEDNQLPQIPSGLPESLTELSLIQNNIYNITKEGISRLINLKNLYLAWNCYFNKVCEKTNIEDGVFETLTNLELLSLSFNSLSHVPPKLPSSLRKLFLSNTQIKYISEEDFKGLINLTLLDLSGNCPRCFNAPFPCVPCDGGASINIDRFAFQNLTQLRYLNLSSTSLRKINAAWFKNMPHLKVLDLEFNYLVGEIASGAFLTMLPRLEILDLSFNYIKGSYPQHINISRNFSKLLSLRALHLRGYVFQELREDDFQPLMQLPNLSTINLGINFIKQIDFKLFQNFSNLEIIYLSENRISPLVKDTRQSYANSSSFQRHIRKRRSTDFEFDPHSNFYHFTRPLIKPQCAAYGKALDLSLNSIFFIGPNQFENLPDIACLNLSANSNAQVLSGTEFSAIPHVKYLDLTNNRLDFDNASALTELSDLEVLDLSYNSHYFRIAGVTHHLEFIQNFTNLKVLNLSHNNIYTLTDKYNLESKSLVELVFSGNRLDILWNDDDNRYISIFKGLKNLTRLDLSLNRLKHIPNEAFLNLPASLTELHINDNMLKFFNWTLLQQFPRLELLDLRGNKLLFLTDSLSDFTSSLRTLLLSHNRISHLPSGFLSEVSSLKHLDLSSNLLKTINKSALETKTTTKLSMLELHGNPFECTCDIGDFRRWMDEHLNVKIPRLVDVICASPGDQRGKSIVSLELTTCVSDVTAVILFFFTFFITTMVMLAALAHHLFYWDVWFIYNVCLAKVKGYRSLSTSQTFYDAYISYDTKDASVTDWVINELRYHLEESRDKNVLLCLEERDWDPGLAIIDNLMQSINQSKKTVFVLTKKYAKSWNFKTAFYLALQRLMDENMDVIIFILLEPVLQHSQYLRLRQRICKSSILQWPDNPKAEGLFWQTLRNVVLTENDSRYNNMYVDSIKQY
How it was run: (§1)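 Steps: seed receptor-specific HEK-Blue cells; add compound, 0.05 nM–50 μM; wait 30 min at room temperature; add final gardiquimod 7.5 μM, R848 15.9 μM or ODN2006 5 nM for TLR7, TLR8 or TLR9; incubate 22 h at 37 °C; detect NF-κB/AP-1-driven SEAP.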

human TLR9 = target: T2, human TLR9 (Homo sapiens, UniProt Q9NR96); assay: TLR9 inhibition reporter assay (HEK-Blue cells, secreted embryonic alkaline phosphatase reporter)
T2 construct: host or cells: HEK-Blue cells (HEK293-derived reporter line)
T2 sequence (Q9NR96 26-1032): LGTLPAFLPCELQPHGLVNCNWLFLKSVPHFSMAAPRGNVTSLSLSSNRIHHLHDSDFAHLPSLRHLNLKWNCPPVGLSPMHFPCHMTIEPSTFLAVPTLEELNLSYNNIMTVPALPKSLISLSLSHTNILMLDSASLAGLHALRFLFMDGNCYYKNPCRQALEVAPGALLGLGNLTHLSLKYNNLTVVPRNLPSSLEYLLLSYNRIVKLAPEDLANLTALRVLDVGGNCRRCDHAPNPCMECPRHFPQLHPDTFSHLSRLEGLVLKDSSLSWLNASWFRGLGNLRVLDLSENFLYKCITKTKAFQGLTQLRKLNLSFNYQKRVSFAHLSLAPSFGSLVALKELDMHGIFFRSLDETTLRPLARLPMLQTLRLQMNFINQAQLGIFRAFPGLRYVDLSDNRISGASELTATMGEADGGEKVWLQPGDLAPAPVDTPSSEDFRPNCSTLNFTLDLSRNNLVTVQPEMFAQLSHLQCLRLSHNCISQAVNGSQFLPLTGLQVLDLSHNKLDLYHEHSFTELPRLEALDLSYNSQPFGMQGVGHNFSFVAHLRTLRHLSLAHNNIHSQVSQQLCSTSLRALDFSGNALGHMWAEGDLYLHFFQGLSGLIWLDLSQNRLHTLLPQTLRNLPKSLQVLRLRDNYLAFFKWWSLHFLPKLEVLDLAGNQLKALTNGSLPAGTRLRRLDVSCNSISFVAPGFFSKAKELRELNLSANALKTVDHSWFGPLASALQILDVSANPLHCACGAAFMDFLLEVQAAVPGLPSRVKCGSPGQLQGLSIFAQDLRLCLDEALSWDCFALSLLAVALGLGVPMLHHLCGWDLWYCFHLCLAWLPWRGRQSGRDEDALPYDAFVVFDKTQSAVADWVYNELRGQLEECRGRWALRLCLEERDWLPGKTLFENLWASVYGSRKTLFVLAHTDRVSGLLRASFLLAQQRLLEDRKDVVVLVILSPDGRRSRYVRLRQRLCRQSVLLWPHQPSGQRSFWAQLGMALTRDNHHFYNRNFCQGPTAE
How it was run: as §1

human TLR7 = target: T3, human TLR7 (Homo sapiens, UniProt Q9NYK1); assay: TLR7 inhibition reporter assay (HEK-Blue cells, secreted embryonic alkaline phosphatase reporter); conditions: HEK-Blue cells overexpressing human TLR7, stimulated with gardiquimod 7.5 μM; read-out: TLR 7 IC50
T3 construct: host or cells: HEK-Blue cells (HEK293-derived reporter line)
T3 sequence (Q9NYK1 27-1049): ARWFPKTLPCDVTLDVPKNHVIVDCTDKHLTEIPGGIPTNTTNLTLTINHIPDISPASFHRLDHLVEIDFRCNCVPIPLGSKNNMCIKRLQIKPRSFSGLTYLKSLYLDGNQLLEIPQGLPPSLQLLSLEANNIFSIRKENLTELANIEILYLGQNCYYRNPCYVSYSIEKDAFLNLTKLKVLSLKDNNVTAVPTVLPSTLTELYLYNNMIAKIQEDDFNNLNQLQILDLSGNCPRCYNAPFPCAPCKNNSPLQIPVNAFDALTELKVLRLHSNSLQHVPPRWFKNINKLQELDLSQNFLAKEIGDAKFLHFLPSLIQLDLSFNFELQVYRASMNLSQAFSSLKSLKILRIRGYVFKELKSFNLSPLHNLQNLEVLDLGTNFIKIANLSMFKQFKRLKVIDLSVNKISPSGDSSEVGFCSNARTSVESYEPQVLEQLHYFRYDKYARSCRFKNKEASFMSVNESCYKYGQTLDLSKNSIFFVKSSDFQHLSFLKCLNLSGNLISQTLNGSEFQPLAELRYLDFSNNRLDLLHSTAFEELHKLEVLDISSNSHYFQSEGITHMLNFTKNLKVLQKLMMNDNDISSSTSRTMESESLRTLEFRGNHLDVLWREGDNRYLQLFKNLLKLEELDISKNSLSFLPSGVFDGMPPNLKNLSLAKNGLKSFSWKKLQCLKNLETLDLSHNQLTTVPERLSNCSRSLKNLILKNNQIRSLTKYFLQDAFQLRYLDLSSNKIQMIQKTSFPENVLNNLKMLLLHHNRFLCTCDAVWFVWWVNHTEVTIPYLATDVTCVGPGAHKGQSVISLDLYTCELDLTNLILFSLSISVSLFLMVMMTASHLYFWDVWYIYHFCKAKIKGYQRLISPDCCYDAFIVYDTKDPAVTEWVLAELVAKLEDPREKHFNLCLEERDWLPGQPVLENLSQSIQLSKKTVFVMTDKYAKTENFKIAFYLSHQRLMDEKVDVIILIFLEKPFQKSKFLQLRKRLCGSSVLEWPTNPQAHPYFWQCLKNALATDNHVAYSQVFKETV
How it was run: as §1

[1] = HEK-Blue cells overexpressing human TLR9, stimulated with ODN2006 5 nM, read-out: TLR 9 IC50
[2] = HEK-Blue human TLR9 reporter cells
[3] = HEK-Blue cells overexpressing human TLR9, stimulated with ODN2006 5 nM, 22 hour incubation, reporter readout

SMILES | pIC50 (human TLR8) | pIC50 (human TLR9) | pIC50 (human TLR9; [1]) | pIC50 (human TLR7) | pIC50 (human TLR9; [2]) | pIC50 (human TLR9; [3])
Cc1cc(C2CCN(C3CC4CCC(C3)N4C3CCC3)CC2)cc2c1nc(-c1ccc(S(C)(=O)=O)cc1)n2C (single isomer, unassigned) [Example 153, 6-(1-(8-cyclobutyl-8-azabicyclo[3.2.1]octan-3-yl)piperidin-4-yl)-1,4-dimethyl-2-(4-(methylsulfonyl)phenyl)-1H-benzo[d]imidazole] | < 4.60 | 6.92 | 7.91 | 4.84 |  | 
Cn1c(-c2ccc(S(C)(=O)=O)cc2)nc2c(F)cc(C3CCN(C4CCCN(CC5CC5)CC4)CC3)cc21 (single isomer, unassigned) [Example 298, 6-(1-(1-(cyclopropylmethyl)azepan-4-yl)piperidin-4-yl)-4-fluoro-1-methyl-2-(4-(methylsulfonyl)phenyl)-1H-benzo[d]imidazole] | < 4.30 |  | 7.24 | 5.52 | 7.24 | 
Cc1cc(C2CCN(C3CCCN(C4CCOCC4)CC3)CC2)cc2c1nc(-c1ccc(S(C)(=O)=O)cc1)n2C (single isomer, unassigned) [Example 306, 1,4-dimethyl-2-(4-(methylsulfonyl)phenyl)-6-(1-(1-(tetrahydro-2H-pyran-4-yl)azepan-4-yl)piperidin-4-yl)-1H-benzo[d]imidazole] | < 4.30 |  | 7.77 | 5.02 | 7.77 | 
COCCN1C2CCC1CC(N1CCC(c3cc(C)c4nc(-c5ccc(S(C)(=O)=O)cc5)n(C)c4c3)CC1)C2 (single isomer, unassigned) [Example 163, 6-(1-(8-(2-methoxyethyl)-8-azabicyclo[3.2.1]octan-3-yl)piperidin-4-yl)-1,4-dimethyl-2-(4-(methylsulfonyl)phenyl)-1H-benzo[d]imidazole] | < 4.60 | 6.22 | 6.22 | 5.21 |  | 
COc1cc(-c2nc3c(C)cc(C4CCN(C5CCN(C(C)C)CC5)CC4)cc3n2C)cn2ncnc12 [Example 125, 6-(6-(1′-isopropyl-[1,4′-bipiperidin]-4-yl)-1,4-dimethyl-1H-benzo[d]imidazol-2-yl)-8-methoxy-[1,2,4]triazolo[1,5-a]pyridine] | 5.68 |  |  | 6.22 |  | 7.55
COCCN1C2CCC1CC(N1CCC(c3cc4c(cc3F)nc(-c3ccc(S(C)(=O)=O)cc3)n4C)CC1)C2 (single isomer, unassigned) [Example 239, 5-fluoro-6-(1-(8-(2-methoxyethyl)-8-azabicyclo[3.2.1]octan-3-yl)piperidin-4-yl)-1-methyl-2-(4-(methylsulfonyl)phenyl)-1H-benzo[d]imidazole] | < 4.30 | 6.54 | 6.54 | ≤ 4.29 |  | 
Cn1c(-c2ccc(S(C)(=O)=O)cc2)nc2c(F)c(C3CCN(C4CCN(C5COC5)CC4)CC3)ccc21 [Example 186, 4-fluoro-1-methyl-2-(4-(methylsulfonyl)phenyl)-5-(1′-(oxetan-3-yl)-[1,4′-bipiperidin]-4-yl)-1H-benzo[d]imidazole] | < 4.30 | 5.14 | 5.14 | < 4.30 |  | 
CC(C)N1C2CCC1CC(N1CCC(c3cc(F)c4nc(-c5ccc(S(C)(=O)=O)cc5)n(C5CC5)c4c3)CC1)C2 (single isomer, unassigned) [Example 116, 1-cyclopropyl-4-fluoro-6-(1-(8-isopropyl-8-azabicyclo[3.2.1]octan-3-yl)piperidin-4-yl)-2-(4-(methylsulfonyl)phenyl)-1H-benzo[d]imidazole] | < 4.30 |  |  | 5.46 |  | 7.29
Cn1c(-c2ccc(S(C)(=O)=O)cc2)nc2c(F)cc(C3CCN(C4CC5CCC(C4)N5C4CCC4)CC3)cc21 (single isomer, unassigned) [Example 292, 6-(1-(8-cyclobutyl-8-azabicyclo[3.2.1]octan-3-yl)piperidin-4-yl)-4-fluoro-1-methyl-2-(4-(methylsulfonyl)phenyl)-1H-benzo[d]imidazole] | < 4.30 |  | 6.83 | 4.66 | 6.82 | 
Cn1c(-c2ccc(S(C)(=O)=O)cc2)nc2cc(C3CCN(C4CC5CCC(C4)N5CC4CC4)CC3)c(F)cc21 (single isomer, unassigned) [Example 250, 5-(1-(8-(cyclopropylmethyl)-8-azabicyclo[3.2.1]octan-3-yl)piperidin-4-yl)-6-fluoro-1-methyl-2-(4-(methylsulfonyl)phenyl)-1H-benzo[d]imidazole] | < 4.30 | 6.96 | 6.96 | 4.44 |  | 
Cc1cc(C2CCN(C3CCN(CC(C)C)CC3)CC2)cc2[nH]c(-c3ccnc4ccccc34)nc12 [Example 59, 4-(6-(1′-isobutyl-[1,4′-bipiperidin]-4-yl)-4-methyl-1H-benzo[d]imidazol-2-yl)quinoline] | < 4.30 |  | 7.00 | 5.42 |  | 7.00
